Reference: patent US20250214991A1 (Oncopia Therapeutics, Inc. d/b/a/ SK Life Science Labs, priority 2022, published 2025)

Assays:
IKZF2 [1] = target: T1, IKZF2 (Homo sapiens (Human), UniProt Q96SW2+Q9UKS7); test: In vitro IKZF2 FACS Assay in Jurkat cells; type: cell-based; details: 24 hrs; for DC50: half maximal degradation concentration; for Dmax: maximal degradation percentage
Method: In vitro IKZF2 FACS Assay
DC50, A: <1 nM; B: 1-10 nM; C: 10-100 nM; D: 100-1000 nM; E: >1000 nM. Dmax, A: >80%; B: 60-80%; C: 40-60%; D: 20-40%; E: <20%.

IKZF1 = IKZF1 (Homo sapiens (Human), UniProt Q13422+Q96SW2); test: In vitro IKZF1 HiBit Assay (HEK293T Flp-in-HiBiT-IKZF1 stable cell line); type: cell-based; details: HEK293T Flp-in-HiBiT-IKZF1 stable cell line, 6 hrs incubation; for DC50: read-out: IKZF1 HiBit DC50; for Dmax: HEK-293T, read-out: IKZF1 HiBit Dmax (%)
Outline: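 HEK293T Flp-in cells carrying N-terminal HiBiT-tagged IKZF1 were exposed to compound (0.1% DMSO) for 6 h at 3000 cells/well. HiBiT luminescence was read after lytic LgBiT detection. DC50 and Dmax were taken from DMSO-normalized dose-response curves.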

IKZF2 [2] = target: T1, IKZF2; test: In vitro IKZF2 HiBit Assay (HEK293T Flp-in-HiBiT cells); type: cell-based; details: HEK293T Flp-in-HiBiT cells, 6 hrs incubation; for DC50: read-out: IKZF2 HiBit DC50; for Dmax: HEK-293T, read-out: IKZF2 HiBit Dmax (%)
Outline: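 HEK293T Flp-in cells carrying an endogenous N-terminal HiBiT tag on IKZF2 were exposed to compound for 6 h at 0.1% DMSO. The dilution series was 11 doses at 3-fold, diluted from 1 mM. Nano-Glo HiBiT lytic luminescence, normalized to DMSO, gave DC50 for 50% degradation and Dmax across the concentration range, both reported in letter bins.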

CRBN/DDB1 = CRBN/DDB1 (Homo sapiens (Human), UniProt Q96SW2); test: IC50 measurements for binding to CRBN/DDB1 (HTRF); details: His tagged CRBN+DDB, Cy5-labeled Thalidomide probe, one hour
Outline: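 HTRF competition binding with 2 nM His-tagged CRBN-DDB1 complex, 60 nM Cy5-thalidomide probe and 0.4 nM anti-His Tb cryptate in 50 mM HEPES pH 7.5, 1 mM TCEP, 0.01% Brij-35, 50 mM NaCl, 0.1% BSA. Read after 1 h at room temperature; IC50 from four-parameter dose-response fit.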

T1 sequence (Q9UKS7 whole entry): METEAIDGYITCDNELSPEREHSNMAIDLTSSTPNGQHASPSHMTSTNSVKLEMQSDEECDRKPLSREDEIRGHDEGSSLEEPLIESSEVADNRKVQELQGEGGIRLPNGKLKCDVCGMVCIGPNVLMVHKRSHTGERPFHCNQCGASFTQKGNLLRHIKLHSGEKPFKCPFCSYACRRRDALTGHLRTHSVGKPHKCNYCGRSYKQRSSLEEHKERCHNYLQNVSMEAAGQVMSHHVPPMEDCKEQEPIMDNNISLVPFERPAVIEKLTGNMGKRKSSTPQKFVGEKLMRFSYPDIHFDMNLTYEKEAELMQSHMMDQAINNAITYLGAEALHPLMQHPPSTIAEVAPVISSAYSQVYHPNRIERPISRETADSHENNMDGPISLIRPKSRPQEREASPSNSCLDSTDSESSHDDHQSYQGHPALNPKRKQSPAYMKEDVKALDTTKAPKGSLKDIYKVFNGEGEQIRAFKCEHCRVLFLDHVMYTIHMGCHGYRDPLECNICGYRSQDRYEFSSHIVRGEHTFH
T1 sequence (Q96SW2 whole entry): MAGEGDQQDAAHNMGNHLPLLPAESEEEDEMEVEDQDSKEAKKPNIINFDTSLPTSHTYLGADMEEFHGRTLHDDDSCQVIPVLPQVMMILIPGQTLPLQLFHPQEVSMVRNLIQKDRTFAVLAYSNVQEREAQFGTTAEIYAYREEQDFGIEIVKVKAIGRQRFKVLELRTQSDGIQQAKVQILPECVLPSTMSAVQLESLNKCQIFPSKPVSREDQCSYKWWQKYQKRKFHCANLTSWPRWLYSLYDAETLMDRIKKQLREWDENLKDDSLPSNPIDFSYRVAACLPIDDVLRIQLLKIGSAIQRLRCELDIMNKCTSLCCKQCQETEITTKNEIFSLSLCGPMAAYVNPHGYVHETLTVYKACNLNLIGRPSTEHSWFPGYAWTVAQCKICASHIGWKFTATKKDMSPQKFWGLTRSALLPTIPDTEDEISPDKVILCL
T1 sequence (Q16531 2-1140 partner): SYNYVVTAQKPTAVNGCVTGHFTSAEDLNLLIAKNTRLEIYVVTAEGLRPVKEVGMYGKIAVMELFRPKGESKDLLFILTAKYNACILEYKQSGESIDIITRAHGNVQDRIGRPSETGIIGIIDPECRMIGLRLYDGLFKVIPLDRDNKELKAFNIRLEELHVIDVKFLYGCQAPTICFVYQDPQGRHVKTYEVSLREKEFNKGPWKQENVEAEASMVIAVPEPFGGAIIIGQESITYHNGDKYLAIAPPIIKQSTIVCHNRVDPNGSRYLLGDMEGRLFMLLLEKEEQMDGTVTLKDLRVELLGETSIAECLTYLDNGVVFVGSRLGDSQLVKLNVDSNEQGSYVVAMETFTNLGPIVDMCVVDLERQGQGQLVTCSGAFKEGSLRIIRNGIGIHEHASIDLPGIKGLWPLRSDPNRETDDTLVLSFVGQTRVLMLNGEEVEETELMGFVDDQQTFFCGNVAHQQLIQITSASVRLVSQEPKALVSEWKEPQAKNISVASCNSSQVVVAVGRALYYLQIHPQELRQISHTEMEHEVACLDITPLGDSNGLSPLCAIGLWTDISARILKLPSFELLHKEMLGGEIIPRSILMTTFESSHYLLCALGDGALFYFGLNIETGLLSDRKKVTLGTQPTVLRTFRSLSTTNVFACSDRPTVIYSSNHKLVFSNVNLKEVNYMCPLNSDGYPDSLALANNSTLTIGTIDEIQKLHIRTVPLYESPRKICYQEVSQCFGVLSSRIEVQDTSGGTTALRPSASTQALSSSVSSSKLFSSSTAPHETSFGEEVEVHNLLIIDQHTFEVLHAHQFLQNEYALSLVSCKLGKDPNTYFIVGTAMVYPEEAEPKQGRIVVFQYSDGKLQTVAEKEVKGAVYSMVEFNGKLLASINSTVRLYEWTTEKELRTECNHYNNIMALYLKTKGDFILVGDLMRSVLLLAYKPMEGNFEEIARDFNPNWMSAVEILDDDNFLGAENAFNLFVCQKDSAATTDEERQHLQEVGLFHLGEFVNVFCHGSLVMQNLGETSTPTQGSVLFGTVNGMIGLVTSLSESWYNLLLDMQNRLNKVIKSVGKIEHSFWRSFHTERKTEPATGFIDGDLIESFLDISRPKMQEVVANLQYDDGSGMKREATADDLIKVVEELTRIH
Sequence of CRBN/DDB1 (Q96SW2 whole entry, species assumed): as the sequence (Q96SW2 whole entry) above
Sequence of CRBN/DDB1 (Q16531 whole entry partner, species assumed): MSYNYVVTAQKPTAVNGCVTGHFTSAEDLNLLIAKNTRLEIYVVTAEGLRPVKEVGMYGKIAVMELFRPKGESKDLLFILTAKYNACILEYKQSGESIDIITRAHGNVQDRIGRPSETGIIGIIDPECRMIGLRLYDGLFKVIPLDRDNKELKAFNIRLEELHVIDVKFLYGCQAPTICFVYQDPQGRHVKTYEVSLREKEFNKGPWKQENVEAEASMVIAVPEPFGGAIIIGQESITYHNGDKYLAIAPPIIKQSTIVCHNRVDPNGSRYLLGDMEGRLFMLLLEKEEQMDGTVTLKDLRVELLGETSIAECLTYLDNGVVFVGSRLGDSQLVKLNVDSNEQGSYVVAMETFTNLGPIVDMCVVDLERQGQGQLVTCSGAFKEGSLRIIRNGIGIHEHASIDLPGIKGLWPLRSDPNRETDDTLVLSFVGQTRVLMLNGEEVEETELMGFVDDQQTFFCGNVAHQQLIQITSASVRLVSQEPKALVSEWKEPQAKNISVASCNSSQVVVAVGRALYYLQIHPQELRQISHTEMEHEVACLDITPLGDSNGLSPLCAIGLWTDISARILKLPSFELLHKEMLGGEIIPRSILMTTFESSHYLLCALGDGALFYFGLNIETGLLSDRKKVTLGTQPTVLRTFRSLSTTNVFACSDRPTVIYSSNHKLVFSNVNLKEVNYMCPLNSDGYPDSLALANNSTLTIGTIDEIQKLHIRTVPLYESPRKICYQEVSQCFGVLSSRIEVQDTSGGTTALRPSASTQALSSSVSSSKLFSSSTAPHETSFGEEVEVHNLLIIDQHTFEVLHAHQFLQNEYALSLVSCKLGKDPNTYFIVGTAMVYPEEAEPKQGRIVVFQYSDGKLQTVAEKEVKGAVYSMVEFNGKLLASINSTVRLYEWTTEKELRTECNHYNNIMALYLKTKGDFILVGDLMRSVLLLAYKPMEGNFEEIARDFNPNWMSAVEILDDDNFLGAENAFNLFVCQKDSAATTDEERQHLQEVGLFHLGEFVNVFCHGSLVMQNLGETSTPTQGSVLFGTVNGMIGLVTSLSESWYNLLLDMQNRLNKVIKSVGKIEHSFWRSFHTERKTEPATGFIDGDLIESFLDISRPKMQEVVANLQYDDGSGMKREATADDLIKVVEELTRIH
Sequence of IKZF1 (Q13422 whole entry): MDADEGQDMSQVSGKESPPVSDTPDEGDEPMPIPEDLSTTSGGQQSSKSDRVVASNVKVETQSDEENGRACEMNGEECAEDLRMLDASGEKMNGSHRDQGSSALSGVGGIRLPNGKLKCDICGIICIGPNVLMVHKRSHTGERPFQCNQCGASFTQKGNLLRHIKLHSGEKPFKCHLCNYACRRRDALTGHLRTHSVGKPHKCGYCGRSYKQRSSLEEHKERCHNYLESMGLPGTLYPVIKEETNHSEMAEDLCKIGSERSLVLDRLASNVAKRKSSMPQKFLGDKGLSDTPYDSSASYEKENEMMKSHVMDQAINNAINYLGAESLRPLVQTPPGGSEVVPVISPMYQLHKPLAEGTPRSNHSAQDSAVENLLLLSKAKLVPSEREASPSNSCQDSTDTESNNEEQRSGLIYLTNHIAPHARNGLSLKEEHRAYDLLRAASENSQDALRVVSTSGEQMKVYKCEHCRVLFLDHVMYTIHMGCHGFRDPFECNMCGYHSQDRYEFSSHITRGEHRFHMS
Sequence of IKZF1 (Q96SW2 whole entry): as the sequence (Q96SW2 whole entry) above
Sequence of IKZF1 (Q16531 2-1140 partner): as the sequence (Q16531 2-1140 partner) above

| SMILES | DC50 (IKZF2 [1]) | Dmax (IKZF2 [1]) | DC50 (IKZF1) | Dmax (IKZF1) | DC50 (IKZF2 [2]) | Dmax (IKZF2 [2]) | IC50 (CRBN/DDB1) |
| --- | --- | --- | --- | --- | --- | --- | --- |
| O=C1CCC(N2Cc3cc(-c4cc(CN5CCC6(CC5)COC6)cc5cncn45)ccc3C2=O)C(=O)N1 (stereo not shown) [Example 10, 3-(5-(7-((2-oxa-7-azaspiro[3.5]nonan-7-yl)methyl)imidazo[1,5-a]pyridin-5-yl)-1-oxoisoindolin-2-yl) piperidine-2,6-dione] | 1 to 10 nM | 40 to 60% | > 10000 nM | < 20% | 1000 to 10000 nM | 40 to 60% | 500 to 1000 nM |
| O=C1CCC(N2Cc3cc(-c4nc(CN5CCCC5)c5ccn(C6COC6)c5n4)ccc3C2=O)C(=O)N1 (stereo not shown) [Example 218, 3-(5-(7-(oxetan-3-yl)-4-(pyrrolidin-1-ylmethyl)-7H-pyrrolo[2,3-d]pyrimidin-2-yl)-1-oxoisoindolin-2-yl) piperidine-2,6-dione] | 10 to 100 nM | 60 to 80% | 100 to 1000 nM | 20 to 40% | 1 to 10 nM | 60 to 80% | 500 to 1000 nM |
| O=C1CCC(N2Cc3cc(-c4cc(CN5CCCC5)c5ccn(C6CC6)c5n4)ccc3C2=O)C(=O)N1 (stereo not shown) [Example 119, 3-(5-(1-cyclopropyl-4-(pyrrolidin-1-ylmethyl)-1H-pyrrolo[2,3-b]pyridin-6-yl)-1-oxoisoindolin-2-yl) piperidine-2,6-dione] | 1 to 10 nM | > 80% | 1000 to 10000 nM | 20 to 40% | < 1 nM | > 80% | 1000 to 5000 nM |
| CC(C)Nc1ccnc2c(CN3CCCC3)cc(-c3ccc4c(c3)CN(C3CCC(=O)NC3=O)C4=O)nc12 (stereo not shown) [Example 236, 3-(5-(8-(isopropylamino)-4-(pyrrolidin-1-ylmethyl)-1,5-naphthyridin-2-yl)-1-oxoisoindolin-2-yl) piperidine-2,6-dione] | > 1000 nM | < 20% | > 10000 nM | < 20% | 10 to 100 nM | 20 to 40% | 1000 to 5000 nM |
| O=C1CCC(N2Cc3cc(-c4cc(CN5CCCC5)cc5cncn45)ccc3C2=O)C(=O)N1 (stereo not shown) [Example 1, 3-(1-oxo-5-(7-(pyrrolidin-1-ylmethyl)imidazo[1,5-a]pyridin-5-yl)isoindolin-2-yl) piperidine-2,6-dione] | 10 to 100 nM | 60 to 80% | > 10000 nM | < 20% | 10 to 100 nM | 60 to 80% | 100 to 500 nM |
| O=C1CCC(N2Cc3cc(-c4cc(CN5CCC(O)CC5)c5ccn(C6COC6)c5n4)ccc3C2=O)C(=O)N1 (stereo not shown) [Example 162, 3-(5-(4-((4-hydroxypiperidin-1-yl)methyl)-1-(oxetan-3-yl)-1H-pyrrolo[2,3-b]pyridin-6-yl)-1-oxoisoindolin-2-yl) piperidine-2,6-dione] | 10 to 100 nM | > 80% | 100 to 1000 nM | 20 to 40% | 10 to 100 nM | 60 to 80% | 100 to 500 nM |
| Cn1cc2nc(-c3ccc4c(c3)CN(C3CCC(=O)NC3=O)C4=O)cc(CN3CCCC3)c2n1 (stereo not shown) [Example 314, 3-(5-(2-methyl-7-(pyrrolidin-1-ylmethyl)-2H-pyrazolo[4,3-b]pyridin-5-yl)-1-oxoisoindolin-2-yl) piperidine-2,6-dione] | 1 to 10 nM | > 80% | 10 to 100 nM | 20 to 40% | 1 to 10 nM | > 80% | 100 to 500 nM |
| Cn1ccc2c(CN3CCC3)cc(-c3ccc4c(c3)CN(C3CCC(=O)NC3=O)C4=O)nc21 (stereo not shown) [Example 56, 3-(5-(4-(azetidin-1-ylmethyl)-1-methyl-1H-pyrrolo[2,3-b]pyridin-6-yl)-1-oxoisoindolin-2-yl) piperidine-2,6-dione] | 1 to 10 nM | 60 to 80% | > 10000 nM | 20 to 40% | < 1 nM | > 80% | < 100 nM |
| O=C1CCC(N2Cc3cc(-c4cc(CN5CCC(O)C5)c5ccn(C6COC6)c5n4)ccc3C2=O)C(=O)N1 (stereo not shown) [Example 158, 3-(5-(4-((3-hydroxypyrrolidin-1-yl)methyl)-1-(oxetan-3-yl)-1H-pyrrolo[2,3-b]pyridin-6-yl)-1-oxoisoindolin-2-yl) piperidine-2,6-dione] | 10 to 100 nM | > 80% | > 10000 nM | < 20% | 10 to 100 nM | 60 to 80% | 100 to 500 nM |
| COC1CCN(Cc2cc(-c3ccc4c(c3)CN(C3CCC(=O)NC3=O)C4=O)nc3c2ccn3C2COC2)CC1 (stereo not shown) [Example 189, 3-(5-(4-((4-methoxypiperidin-1-yl)methyl)-1-(oxetan-3-yl)-1H-pyrrolo[2,3-b]pyridin-6-yl)-1-oxoisoindolin-2-yl) piperidine-2,6-dione] | 1 to 10 nM | > 80% | 10 to 100 nM | 20 to 40% | 1 to 10 nM | > 80% | 100 to 500 nM |
| O=C1CCC(N2Cc3cc(-c4cc(CN5CC6COCC6C5)c5ccn(C6COC6)c5n4)ccc3C2=O)C(=O)N1 (stereo not shown) [Example 186, 3-(5-(1-(oxetan-3-yl)-4-((tetrahydro-1H-furo[3,4-c]pyrrol-5 (3H)-yl)methyl)-1H-pyrrolo[2,3-b]pyridin-6-yl)-1-oxoisoindolin-2-yl) piperidine-2,6-dione] | 1 to 10 nM | > 80% | > 10000 nM | < 20% | 1 to 10 nM | > 80% | 100 to 500 nM |
| O=C1CCC(N2Cc3cc(-c4cc(CN5CCCC5)c5ccn(C6COC6)c5n4)ccc3C2=O)C(=O)N1 (stereo not shown) [Example 129, 3-(5-(1-(oxetan-3-yl)-4-(pyrrolidin-1-ylmethyl)-1H-pyrrolo[2,3-b]pyridin-6-yl)-1-oxoisoindolin-2-yl) piperidine-2,6-dione] | 1 to 10 nM | > 80% | 10 to 100 nM | 20 to 40% | < 1 nM | > 80% | 100 to 500 nM |
| CC(C)Nc1n[nH]c2c(CN3CCCC3)cc(-c3ccc4c(c3)CN(C3CCC(=O)NC3=O)C4=O)nc12 (stereo not shown) [Example 193, 3-(5-(3-(isopropylamino)-7-(pyrrolidin-1-ylmethyl)-1H-pyrazolo[4,3-b]pyridin-5-yl)-1-oxoisoindolin-2-yl) piperidine-2,6-dione] | 1 to 10 nM | 40 to 60% | 10 to 100 nM | 20 to 40% | 1 to 10 nM | > 80% | 1000 to 5000 nM |
| O=C1CCC(N2Cc3cc(-c4cc(CN5CCCCC5)cc5cncn45)ccc3C2=O)C(=O)N1 (stereo not shown) [Example 3, 3-(1-oxo-5-(7-(piperidin-1-ylmethyl)imidazo[1,5-a]pyridin-5-yl)isoindolin-2-yl) piperidine-2,6-dione] | 10 to 100 nM | 40 to 60% | > 10000 nM | < 20% | 10 to 100 nM | 60 to 80% | 100 to 500 nM |
| O=C1CCC(N2Cc3cc(-c4cc(CN5CCC6(CC5)CC6)cc5cncn45)ccc3C2=O)C(=O)N1 (stereo not shown) [Example 8, 3-(5-(7-((6-azaspiro[2.5]octan-6-yl)methyl)imidazo[1,5-a]pyridin-5-yl)-1-oxoisoindolin-2-yl) piperidine-2,6-dione] | 10 to 100 nM | 40 to 60% | > 10000 nM | < 20% | 10 to 100 nM | 40 to 60% | 1000 to 5000 nM |
| O=C1CCC(N2Cc3cc(-c4cc(CN5CCCC5)c5cn[nH]c5n4)ccc3C2=O)C(=O)N1 (stereo not shown) [Example 105, 3-(1-oxo-5-(4-(pyrrolidin-1-ylmethyl)-1H-pyrazolo[3,4-b]pyridin-6-yl)isoindolin-2-yl) piperidine-2,6-dione] | 1 to 10 nM | > 80% | 1000 to 10000 nM | 20 to 40% | 1 to 10 nM | > 80% | 500 to 1000 nM |
